Assay results taken from patent US20100209508A1, “Substituted Phenylphosphates as Mutual Prodrugs of Steroids and ß-Agonists for the Treatment of Title Pulmonary Inflammation and Bronchoconstriction” (CORUS PHARMA, INC., priority 2005, published 2010).

Assays:
TNF-α = TNF-α secretion (h) (PBMC); format: cell-based, human; details: Homo sapiens, 24 h, read-out: TNF-α secretion IC50
[1] = system: splenic lymphocytes isolated from C57BL/6 mice and CBA mice; test: Immunosuppression ([3H]TMD incorporation in mouse splenic lymphocytes); format: cell-based; details: Mus musculus, Splenic lymphocyte; read-out: Immunosuppresion IC50
[2] = Control solution without enzyme (pH 7.4 buffer, 37° C.); format: physicochemical; details: 25 to 50 hours, LCMS
cytokine release = test: Panel of standard cell-based in vitro assays evaluating cytokine release inhibition; details: prodrugs compared to the steroid drugs (Examples 27 and 62, respectively)
Experimental: The selected compounds of the invention were tested in a panel of standard, cell-based in vitro assays evaluating the cytokine release inhibition and thus the anti-inflammatory activity of a test article. Several potent steroid analogs were identified, namely compounds described in Examples 23, 27, 43, 59 and 62. […] Therefore by masking the pharmacological properties of a respective steroid the mutual prodrug mitigates the oropharyngeal side effects and confines the antiinflammatory activity of a steroid to the endobronchial space, where the lung enzymes (specifically alkaline phosphatase) release the pharmacologically active steroid (see Examples 141-143).

alkaline phosphatase = test: Conversion of mutual prodrugs after exposure to alkaline phosphatase (ALP experiment); details: for course in the reaction solution (with enzyme): alkaline phosphatase ~600 ng/μl, pH 7.4, 37° C., LCMS; for Prodrug 17 Concentration: mutual prodrug 17 + alkaline phosphatase; for Prodrug 16 Concentration: mutual prodrug 16 + alkaline phosphatase;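 on all read-outs here: mutual prodrug and its released products quantified by LCMS over time in buffer with alkaline phosphatase, compared against enzyme-free control buffer, incubations running 25–50 hours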
Experimental: Reaction and control solutions were prepared by adding a 500 μL aliquot of a ˜200 ng/μl solution in 1:1 acetonitrile/water of and the compound 16 (or alternatively 17) to 500 μl of a pH 7.4 buffer solution, containing 5 mM tris(hydroxymethyl)aminomethane, 1 mM ZnCl2, 1 mM MgCl2. For the reaction solutions, the buffer also contained approximately 600 ng/μl of alkaline phosphatase (Sigma-Aldrich) whereas the control buffer solutions contained no enzyme. The reaction and control solutions were incubated at 37° C. for 25 to 50 hours. The solutions were analyzed periodically for the respective mutual prodrug and reaction products by LCMS.
The concentration of the alkaline phosphatase in the reaction buffer was ˜600 ng/μL (the enzyme activity of the solution was not determined).
The concentration of the alkaline phosphatase in the buffer added to the stock solution was ˜600 ng/μl (the enzyme activity of the solution was not determined).

With `C[C@]12C=CC(=O)C=C1CCC1C3C[C@H]4OC(c5ccc[n+](Cc6ccc(C(O)CNCCCCCCOCCCCc7ccccc7)cc6OP(=O)(O)O)c5)O[C@@]4(C(=O)CO)[C@@]3(C)C[C@H](O)[C@@]12F` (stereo partly drawn) [Example 133] as the molecule, how does the IC50 (TNF-α) read?
Its IC50 is > 1000 nM.

What about the IC50 [1] of the same molecule?
The IC50 was 180 nM.

What about the “compounds detected in the control solution (without enzyme)” value [2] of the same molecule?
The value was “Only the mutual prodrug 17 was detected”.

And the “anti-inflammatory activity (cytokine release inhibition), assessment in words” value (cytokine release)?
The value was “less active or inactive”.

What about the “course in the reaction solution (with enzyme)” value (alkaline phosphatase) of the same molecule?
Its value is “disappearance of the mutual prodrug”.

And the “Prodrug 17 Concentration” value (alkaline phosphatase; 0.00 Hours @ 37° C.)?
The value was 214.4 nmol/mL.

What about the “Prodrug 17 Concentration” value (alkaline phosphatase; 0.53 Hours @ 37° C.) of the same molecule?
Its value is 112.6 nmol/mL.

What about the “Prodrug 17 Concentration” value (alkaline phosphatase; 1.05 Hours @ 37° C.) of the same molecule?
Its value is 44.9 nmol/mL.

What about the “Prodrug 17 Concentration” value (alkaline phosphatase; 2.10 Hours @ 37° C.) of the same molecule?
The value was 9.8 nmol/mL.

And the “Prodrug 17 Concentration” value (alkaline phosphatase; 3.16 Hours @ 37° C.)?
The value was 4.2 nmol/mL.

What about the “Prodrug 17 Concentration” value (alkaline phosphatase; 4.21 Hours @ 37° C.) of the same molecule?
The value was 3.7 nmol/mL.

And the “Prodrug 17 Concentration” value (alkaline phosphatase; 10.52 Hours @ 37° C.)?
Its value is 0.0 nmol/mL.

What about the “Prodrug 17 Concentration” value (alkaline phosphatase; 19.99 Hours @ 37° C.) of the same molecule?
Its value is 0.0 nmol/mL.

And the “Prodrug 17 Concentration” value (alkaline phosphatase; 29.46 Hours @ 37° C.)?
The value was 0.0 nmol/mL.

What about the “Prodrug 17 Concentration” value (alkaline phosphatase; 39.99 Hours @ 37° C.) of the same molecule?
Its value is 0.0 nmol/mL.

And the “Prodrug 17 Concentration” value (alkaline phosphatase; 49.46 Hours @ 37° C.)?
Its value is 0.0 nmol/mL.

For `C[C@]12C=CC(=O)C=C1CC[C@H]1[C@@H]3C[C@H]4O[C@@H](C5CCCCC5)O[C@@]4(C(=O)CN4CC[N+](C)(Cc5ccc(C(O)CNCCCCCCOCCCCc6ccccc6)cc5OP(=O)(O)O)CC4)[C@@]3(C)C[C@H](O)[C@@]12F` (stereo partly drawn) [Example 107, Salmeterol-phosphate-16,17-[(Cyclohexylmethylene)bis(oxy)]-9-fluoro-11-hydroxy-21-(4-methylpiperazinium)-pregna-1,4-diene-3,20-dione[11β,16α(R)]], which IC50 (TNF-α) is on record?
Its IC50 is 810 nM.

What about the IC50 [1] of the same molecule?
Its IC50 is 80 nM.

And the “compounds detected in the control solution (without enzyme)” value [2]?
The value was “Only the mutual prodrug 16 was detected”.

What about the “anti-inflammatory activity (cytokine release inhibition), assessment in words” value (cytokine release) of the same molecule?
The value was “less active or inactive”.

What about the “course in the reaction solution (with enzyme)” value (alkaline phosphatase) of the same molecule?
Its value is “disappearance of the mutual prodrug 16”.

And the “Prodrug 16 Concentration” value (alkaline phosphatase; 0.00 Hours @ 37° C.)?
Its value is 91.0 nmol/mL.

And the “Prodrug 16 Concentration” value (alkaline phosphatase; 0.59 Hours @ 37° C.)?
Its value is 87.7 nmol/mL.

And the “Prodrug 16 Concentration” value (alkaline phosphatase; 1.19 Hours @ 37° C.)?
The value was 78.6 nmol/mL.

And the “Prodrug 16 Concentration” value (alkaline phosphatase; 2.96 Hours @ 37° C.)?
Its value is 67.8 nmol/mL.

What about the “Prodrug 16 Concentration” value (alkaline phosphatase; 3.56 Hours @ 37° C.) of the same molecule?
Its value is 62.3 nmol/mL.

What about the “Prodrug 16 Concentration” value (alkaline phosphatase; 4.15 Hours @ 37° C.) of the same molecule?
Its value is 61.6 nmol/mL.

And the “Prodrug 16 Concentration” value (alkaline phosphatase; 10.67 Hours @ 37° C.)?
Its value is 43.1 nmol/mL.

What about the “Prodrug 16 Concentration” value (alkaline phosphatase; 15.41 Hours @ 37° C.) of the same molecule?
The value was 36.7 nmol/mL.

And the “Prodrug 16 Concentration” value (alkaline phosphatase; 19.56 Hours @ 37° C.)?
Its value is 33.1 nmol/mL.

And the “Prodrug 16 Concentration” value (alkaline phosphatase; 24.30 Hours @ 37° C.)?
The value was 29.3 nmol/mL.

What about the “Prodrug 16 Concentration” value (alkaline phosphatase; 30.82 Hours @ 37° C.) of the same molecule?
The value was 24.8 nmol/mL.

And the “Prodrug 16 Concentration” value (alkaline phosphatase; 34.97 Hours @ 37° C.)?
The value was 23.0 nmol/mL.
